# According to US12005034B2 (ALGOTHERAPEUTIX, priority 2017, dated 2024):
# Tests used:
# TRPV1 = target: T1, TRPV1 (Mus musculus, UniProt Q704Y3); assay: Calcium mobilization in DRG neurons with TRPV1 antagonist or agonist; type: cell-based
# T1 construct: calcium ion mobilization was investigated in primary cultures of mouse DRG neurons; endogenous in cells; host or cells: primary mouse DRG neurons
# Experimental: (§1) For calcium mobilization measurements, 10 DRG cultures (two mice per culture) were washed with Hanks Balanced Salt Solution (HBSS, Thermo Fisher Scientific, Massachusetts, USA), and incubated in HBSS containing 1 μg/ml papain (Sigma Aldrich, Missouri, USA) and L-cysteine (pH 7.4, Sigma Aldrich) for 10 minutes at 37° C. […] Neurons were then mechanically dissociated. […] DRG neurons were incubated with HBSS containing 20 mM Hepes, […] fluo-4 acetoxymethyl (AM) ester (Thermo Fisher Scientific, Waltham, MA USA) and 0.02% pluronic acid for 30 min at 37° C. followed by an additional incubation for 30 min at room temperature. The medium was then discarded and replaced by HBSS. […] The effects of TRP channel agonists and antagonists on amitriptyline-induced calcium ion mobilization were then assessed as follows: neurons were incubated with either an antagonist for TRPV1 (10 μM AMG 9810, Sigma Aldrich) or an antagonist for TRPA1 (HCO30031; […] Sigma Aldrich). Neurons were imaged using an inverted microscope (Zeiss) and a 10×0.5 NA objective. […] Baseline fluorescence was determined for 0 to 10 seconds, and then fluorescence was measured from the 10th to the 65th second after the neurons were incubated with the drugs or controls. […] Variations in fluorescence intensity measured in each neuron were identified using Image J2 software.
# TRPA1 = target: T2, TRPA1 (Mus musculus, UniProt Q8BLA8); assay: Calcium mobilization in DRG neurons with TRPA1 antagonist or agonist; type: cell-based
# T2 construct: calcium ion mobilization was investigated in primary cultures of mouse DRG neurons; endogenous in cells; host or cells: primary mouse DRG neurons
# Experimental: as §1
# Nav1.9 = target: T3, Nav1.9 (Mus musculus, UniProt Q9R053); assay: Whole-cell patch-clamp of sodium currents in Nav1.8-/- DRG neurons; type: cell-based; conditions: holding potential −100 mV, cumulative 1 μM-1 mM; read-out: IC50, block of Nav1.9 current
# T3 construct: the Nav1.9 current was recorded in Nav1.8−/− DRG neurons; endogenous in cells; host or cells: primary DRG neurons from Nav1.8-/- mice (C57Bl/6J background)
# Experimental: (§2) Cultures of DRG were prepared from male mice anesthetized with isoflurane (4%, Piramal Critical Care) and sacrificed by severing of the carotid arteries. Cultures of dissociated DRG neurons were established from thoracolumbar DRG.
# (§3) DRG for whole-cell patch-clamp recordings were incubated in Hanks balance salt solution (Invitrogen, France) containing 2 mg/ml of collagenase IA (Sigma, France) for approximately 45 minutes at 37° C. DRG were washed at least 10 times and then triturated with a fired polished glass Pasteur pipette. […]
# (§4) Patch clamp recordings were made using borosilicate electrodes (Harvard Apparatus, Holliston, Massachusetts, USA) with a resistance of 2-3 MΩ when filled with an intracellular solution consisting of (in mM): 130 CsCl, 10 Hepes, 8 NaCl, 0.4 NaGTP, 4 MgATP, 1 MgCl2, 1 CaCl2 and 10 EGTA (adjusted to pH 7.3 with CsOH, ˜300 mOsm/L). […] Sodium currents were recorded individually. […] The Nav1.8 current was recorded in Nav1.9−/− DRG neurons, whereas the Nav1.9 current was recorded in Nav1.8−/− DRG neurons. […] Fast activating/inactivating TTX-sensitive Na+ currents (Nav1.1 and Nav1.6) in putative non-nociceptors were recorded in wild-type DRG neurons that had large cell membrane capacitance (Cm>60 pF) and lacked any TTX-resistant Na+ current components. […]
# neuropathic pain = conditions: topical, maximum dose used 5%; cited from earlier work
# C fibers = assay: Ex vivo single unit recordings, skin-saphenous nerve preparation; type: cell-based, mouse
# Experimental: (§5) Adult male mice were anesthetized with isoflurane (4%) and sacrificed by severing of the carotid arteries. Skin-saphenous nerve preparations and single-fiber recordings were carried out. The saphenous nerve and the skin of the hind limb were carefully dissected and placed in a custom-designed organ chamber containing warm oxygenated synthetic interstitial fluid (SIF). […] The saphenous nerve was placed in an adjacent recording chamber filled with mineral oil, gently teased, and groups of nerve fibers were placed on a gold recording electrode in order to isolate single-unit activity. […] Cambridge Electronic Design Limited, UK). Spikes were discriminated off-line using the Spike2 software (Cambridge Electronic Design Limited, UK) and analyzed individually to avoid false positives. The mechanically evoked activity of single saphenous nerve fibers was first obtained in response to von Frey hair stimulations (Friedrich-Alexander University, Erlangen, Germany). Once a receptive field had been characterized, a patch of skin was isolated from the surrounding bath using a plastic minichamber (inner diameter: 0.8 cm) continuously superfused with buffer at 31° C. The receptive field was then stimulated using von Frey mechanical probes mounted on the arm of a computer-controlled piezoelectric […]® controller; PI, Germany). Conduction velocity was determined by electrically stimulating (Tungsten microelectrode: 10 mm ext/60 mm PI; FHC, USA) identified receptive fields with square wave pulses (0.1-0.5 ms, 7-15 V). Axons were considered to be A-type when the conduction velocity was over 4 m/s. Fibers with a conduction velocity below 1 m/s were classified as C fibers.
# Aβ fibers = assay: as above; type: cell-based, mouse
# Experimental: as §5
# Nav1.8 = target: T4, Nav1.8 (Mus musculus, UniProt Q6QIY3); assay: Whole-cell patch-clamp of sodium currents in Nav1.9-/- DRG neurons; type: cell-based; conditions: holding potential −100 mV, cumulative 1 μM-1 mM; read-out: IC50, block of Nav1.8 current
# T4 construct: The Nav1.8 current was recorded in Nav1.9−/− DRG neurons; endogenous in cells; host or cells: primary DRG neurons from Nav1.9-/- mice (C57Bl/6J background)
# [1] = Ex vivo study of percutaneous amitriptyline absorption, Frantz cell; type: in vitro ADME, human
# C, Aδ and Aβ fibers = assay: Ex vivo single unit recordings, skin-saphenous nerve preparation, all fiber types; type: cell-based, mouse
# Experimental: (§6) Adult male mice were anesthetized with isoflurane (4%) and sacrificed by severing of the carotid arteries. Skin-saphenous nerve preparations and single-fiber recordings were carried out. The saphenous nerve and the skin of the hind limb were carefully dissected and placed in a custom-designed organ chamber containing warm oxygenated synthetic interstitial fluid (SIF). […] The saphenous nerve was placed in an adjacent recording chamber filled with mineral oil, gently teased, and groups of nerve fibers were placed on a gold recording electrode in order to isolate single-unit activity. […] Cambridge Electronic Design Limited, UK). Spikes were discriminated off-line using the Spike2 software (Cambridge Electronic Design Limited, UK) and analyzed individually to avoid false positives. The mechanically evoked activity of single saphenous nerve fibers was first obtained in response to von Frey hair stimulations (Friedrich-Alexander University, Erlangen, Germany). Once a receptive field had been characterized, a patch of skin was isolated from the surrounding bath using a plastic minichamber (inner diameter: 0.8 cm) continuously superfused with buffer at 31° C. […] Conduction velocity was determined by electrically stimulating (Tungsten microelectrode: 10 mm ext/60 mm PI; FHC, USA) identified receptive fields with square wave pulses (0.1-0.5 ms, 7-15 V). […]
# mouse DRG neurons = assay: Calcium mobilization in DRG neurons, fluo-4 calcium imaging; type: cell-based
# Experimental: For calcium mobilization measurements, 10 DRG cultures (two mice per culture) were washed with Hanks Balanced Salt Solution (HBSS, Thermo Fisher Scientific, Massachusetts, USA), and incubated in HBSS containing 1 μg/ml papain (Sigma Aldrich, Missouri, USA) and L-cysteine (pH 7.4, Sigma Aldrich) for 10 minutes at 37° C. […] Neurons were then mechanically dissociated. […] DRG neurons were incubated with HBSS containing 20 mM Hepes, […] fluo-4 acetoxymethyl (AM) ester (Thermo Fisher Scientific, Waltham, MA USA) and 0.02% pluronic acid for 30 min at 37° C. followed by an additional incubation for 30 min at room temperature. The medium was then discarded and replaced by HBSS. […] The effects of TRP channel agonists and antagonists on amitriptyline-induced calcium ion mobilization were then assessed as follows: neurons were incubated with either an antagonist for TRPV1 (10 μM AMG 9810, Sigma Aldrich) or an antagonist for TRPA1 (HCO30031; […] Sigma Aldrich). Neurons were imaged using an inverted microscope (Zeiss) and a 10×0.5 NA objective. Images were acquired using a CCD camera (Zeiss) and Zen software (Zeiss). Acquisition parameters were kept constant during each experiment. Kinetic analysis was performed using 85 recordings (one per second). Baseline fluorescence was determined for 0 to 10 seconds, and then fluorescence was measured from the 10th to the 65th second after the neurons were incubated with the drugs or controls. At 65 seconds, 50 mM KCl was added to the cells in order to allow discrimination between neurons and glial cells. Variations in fluorescence intensity measured in each neuron were identified using Image J2 software.
# [2] = system: TTX-S Nav channels (Nav1.1 and Nav1.6); assay: Whole-cell patch-clamp of TTX-sensitive sodium currents in wild-type DRG neurons; type: cell-based, mouse; conditions: read-out: IC50, block of TTX-S Nav currents; holding potential −80 mV, touch mechanoreceptors
# Experimental: as §2, §3, §4
# [3] = in vivo; cited from earlier work
# Aδ fibers = assay: Ex vivo single unit recordings, skin-saphenous nerve preparation; type: cell-based; conditions: Mus musculus, 10 min
# Experimental: as §6
# [4] = system: Nav channels in sensory neurons; assay: Whole-cell patch-clamp of sodium currents, all Nav channels tested; type: cell-based, mouse; conditions: 100 μM
# From the text: Patch clamp recordings were made using borosilicate electrodes (Harvard Apparatus, Holliston, Massachusetts, USA) with a resistance of 2-3 MΩ when filled with an intracellular solution consisting of (in mM): 130 CsCl, 10 Hepes, 8 NaCl, 0.4 NaGTP, 4 MgATP, 1 MgCl2, 1 CaCl2 and 10 EGTA (adjusted to pH 7.3 with CsOH, ˜300 mOsm/L). […] Voltage-gated sodium ion currents were leak-subtracted using a P/6 protocol and voltage errors were minimized using 75-80% series resistance compensation. Cultured cells were perfused with the bath solution at flow rate of 5 mL/min. Recordings were made at room temperature (20-24° C.) using an Axopatch 200B amplifier (Axon Instruments, Boston, Massachusetts, USA), filtered at 1-2 kHz, and digitally sampled at 5-20 kHz. Sodium currents were recorded individually. […]. The Nav1.8 current was recorded in Nav1.9−/− DRG neurons, whereas the Nav1.9 current was recorded in Nav1.8−/− DRG neurons. Nav1.8−/− and Nav1.9−/− mice were generated from a C57B1/6J background. Fast activating/inactivating TTX-sensitive Na+ currents (Nav1.1 and Nav1.6) in putative non-nociceptors were recorded in wild-type DRG neurons that had large cell membrane capacitance (Cm>60 pF) and lacked any TTX-resistant Na+ current components. Nav1.7 recordings were made using the transfected HEK cells.
# hNav1.7 = target: T5, hNav1.7 (Homo sapiens, UniProt Q15858); assay: Whole-cell patch-clamp of sodium currents in hNav1.7-transfected HEK293T cells; type: cell-based; conditions: holding potential −80 mV, cumulative 1 μM-1 mM; read-out: IC50, block of Nav1.7 current
# T5 construct: expressed in transfected cells; host or cells: HEK293T
# Experimental: Human embryonic kidney 293T (HEK293T) cells were grown in DMEM containing 4.5 mg/ml glucose, 10% FBS, 50 units/ml penicillin and 50 μg/ml streptomycin. Cells were plated onto 12-mm round glass poly-D-lysine-coated coverslips placed in 24-well plates and transfected using lipofectamine 2000 (Invitrogen) according to the manufacturer's instructions. hNav1.7 and GFP plasmids were co-transfected at a concentration of 600 and 100 ng/ml, respectively. Experiments were conducted on cells 24-48 hours post-transfection.
# as §4
# [5] = Mus musculus, 10 min, skin superfusion 10 min, 10-100 μM, read-out: IC50, inhibition of mechanically induced firing
# [6] = Mus musculus, 10 min, 100 μM, 10 min application to the skin preparation, read-out: Mean inhibition of evoked firing
# T1 sequence (Q704Y3 whole entry): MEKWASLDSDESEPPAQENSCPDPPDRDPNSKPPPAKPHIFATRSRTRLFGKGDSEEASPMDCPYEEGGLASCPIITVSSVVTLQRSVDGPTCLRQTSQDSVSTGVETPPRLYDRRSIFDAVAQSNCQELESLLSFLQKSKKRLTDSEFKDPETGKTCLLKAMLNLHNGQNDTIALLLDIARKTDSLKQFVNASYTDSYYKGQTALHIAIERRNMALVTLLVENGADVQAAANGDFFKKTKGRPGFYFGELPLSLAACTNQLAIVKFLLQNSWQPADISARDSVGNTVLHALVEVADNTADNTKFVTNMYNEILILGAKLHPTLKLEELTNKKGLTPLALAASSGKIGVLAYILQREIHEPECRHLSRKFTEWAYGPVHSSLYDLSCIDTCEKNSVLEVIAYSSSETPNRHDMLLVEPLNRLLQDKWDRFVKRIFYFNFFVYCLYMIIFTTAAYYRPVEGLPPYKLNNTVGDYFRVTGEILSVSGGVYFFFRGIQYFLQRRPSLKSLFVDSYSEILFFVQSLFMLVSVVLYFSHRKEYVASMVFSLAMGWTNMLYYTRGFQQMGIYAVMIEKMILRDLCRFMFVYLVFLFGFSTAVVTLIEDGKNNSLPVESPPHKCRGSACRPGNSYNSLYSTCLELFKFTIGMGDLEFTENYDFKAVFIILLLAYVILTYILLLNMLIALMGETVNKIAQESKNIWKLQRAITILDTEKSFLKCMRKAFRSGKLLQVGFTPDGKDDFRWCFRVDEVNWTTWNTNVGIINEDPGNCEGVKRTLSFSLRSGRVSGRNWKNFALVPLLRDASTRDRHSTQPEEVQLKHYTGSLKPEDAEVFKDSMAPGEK
# T2 sequence (Q8BLA8 whole entry): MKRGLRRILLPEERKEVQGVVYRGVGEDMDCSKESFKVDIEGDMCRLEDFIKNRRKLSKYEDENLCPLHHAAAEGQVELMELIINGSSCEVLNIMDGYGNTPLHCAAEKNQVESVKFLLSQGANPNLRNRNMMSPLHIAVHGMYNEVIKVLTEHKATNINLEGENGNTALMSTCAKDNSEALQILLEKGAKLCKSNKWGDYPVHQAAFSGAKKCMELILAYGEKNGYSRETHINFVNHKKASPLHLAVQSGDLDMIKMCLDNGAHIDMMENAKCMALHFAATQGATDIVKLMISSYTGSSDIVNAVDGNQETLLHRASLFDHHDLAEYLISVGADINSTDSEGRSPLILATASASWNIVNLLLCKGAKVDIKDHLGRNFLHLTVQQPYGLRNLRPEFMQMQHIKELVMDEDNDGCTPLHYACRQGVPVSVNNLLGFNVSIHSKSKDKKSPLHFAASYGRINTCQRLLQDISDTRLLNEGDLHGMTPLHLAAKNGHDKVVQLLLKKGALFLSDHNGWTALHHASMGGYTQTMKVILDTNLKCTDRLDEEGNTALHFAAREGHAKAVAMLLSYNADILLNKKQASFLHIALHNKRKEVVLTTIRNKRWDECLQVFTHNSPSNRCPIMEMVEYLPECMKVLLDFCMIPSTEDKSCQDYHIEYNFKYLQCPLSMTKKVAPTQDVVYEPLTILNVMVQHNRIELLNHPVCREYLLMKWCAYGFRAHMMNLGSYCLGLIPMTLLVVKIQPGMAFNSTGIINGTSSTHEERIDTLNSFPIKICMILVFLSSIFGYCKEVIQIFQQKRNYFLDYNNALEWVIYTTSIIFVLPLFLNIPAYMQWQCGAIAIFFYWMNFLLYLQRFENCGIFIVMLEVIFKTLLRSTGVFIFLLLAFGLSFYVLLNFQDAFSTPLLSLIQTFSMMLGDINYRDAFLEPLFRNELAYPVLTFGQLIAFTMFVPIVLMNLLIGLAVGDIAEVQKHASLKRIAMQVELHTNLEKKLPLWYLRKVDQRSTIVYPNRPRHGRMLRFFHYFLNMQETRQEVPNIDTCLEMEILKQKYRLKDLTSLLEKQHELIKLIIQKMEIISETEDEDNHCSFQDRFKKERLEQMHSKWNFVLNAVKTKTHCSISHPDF
# T4 sequence (Q6QIY3 whole entry): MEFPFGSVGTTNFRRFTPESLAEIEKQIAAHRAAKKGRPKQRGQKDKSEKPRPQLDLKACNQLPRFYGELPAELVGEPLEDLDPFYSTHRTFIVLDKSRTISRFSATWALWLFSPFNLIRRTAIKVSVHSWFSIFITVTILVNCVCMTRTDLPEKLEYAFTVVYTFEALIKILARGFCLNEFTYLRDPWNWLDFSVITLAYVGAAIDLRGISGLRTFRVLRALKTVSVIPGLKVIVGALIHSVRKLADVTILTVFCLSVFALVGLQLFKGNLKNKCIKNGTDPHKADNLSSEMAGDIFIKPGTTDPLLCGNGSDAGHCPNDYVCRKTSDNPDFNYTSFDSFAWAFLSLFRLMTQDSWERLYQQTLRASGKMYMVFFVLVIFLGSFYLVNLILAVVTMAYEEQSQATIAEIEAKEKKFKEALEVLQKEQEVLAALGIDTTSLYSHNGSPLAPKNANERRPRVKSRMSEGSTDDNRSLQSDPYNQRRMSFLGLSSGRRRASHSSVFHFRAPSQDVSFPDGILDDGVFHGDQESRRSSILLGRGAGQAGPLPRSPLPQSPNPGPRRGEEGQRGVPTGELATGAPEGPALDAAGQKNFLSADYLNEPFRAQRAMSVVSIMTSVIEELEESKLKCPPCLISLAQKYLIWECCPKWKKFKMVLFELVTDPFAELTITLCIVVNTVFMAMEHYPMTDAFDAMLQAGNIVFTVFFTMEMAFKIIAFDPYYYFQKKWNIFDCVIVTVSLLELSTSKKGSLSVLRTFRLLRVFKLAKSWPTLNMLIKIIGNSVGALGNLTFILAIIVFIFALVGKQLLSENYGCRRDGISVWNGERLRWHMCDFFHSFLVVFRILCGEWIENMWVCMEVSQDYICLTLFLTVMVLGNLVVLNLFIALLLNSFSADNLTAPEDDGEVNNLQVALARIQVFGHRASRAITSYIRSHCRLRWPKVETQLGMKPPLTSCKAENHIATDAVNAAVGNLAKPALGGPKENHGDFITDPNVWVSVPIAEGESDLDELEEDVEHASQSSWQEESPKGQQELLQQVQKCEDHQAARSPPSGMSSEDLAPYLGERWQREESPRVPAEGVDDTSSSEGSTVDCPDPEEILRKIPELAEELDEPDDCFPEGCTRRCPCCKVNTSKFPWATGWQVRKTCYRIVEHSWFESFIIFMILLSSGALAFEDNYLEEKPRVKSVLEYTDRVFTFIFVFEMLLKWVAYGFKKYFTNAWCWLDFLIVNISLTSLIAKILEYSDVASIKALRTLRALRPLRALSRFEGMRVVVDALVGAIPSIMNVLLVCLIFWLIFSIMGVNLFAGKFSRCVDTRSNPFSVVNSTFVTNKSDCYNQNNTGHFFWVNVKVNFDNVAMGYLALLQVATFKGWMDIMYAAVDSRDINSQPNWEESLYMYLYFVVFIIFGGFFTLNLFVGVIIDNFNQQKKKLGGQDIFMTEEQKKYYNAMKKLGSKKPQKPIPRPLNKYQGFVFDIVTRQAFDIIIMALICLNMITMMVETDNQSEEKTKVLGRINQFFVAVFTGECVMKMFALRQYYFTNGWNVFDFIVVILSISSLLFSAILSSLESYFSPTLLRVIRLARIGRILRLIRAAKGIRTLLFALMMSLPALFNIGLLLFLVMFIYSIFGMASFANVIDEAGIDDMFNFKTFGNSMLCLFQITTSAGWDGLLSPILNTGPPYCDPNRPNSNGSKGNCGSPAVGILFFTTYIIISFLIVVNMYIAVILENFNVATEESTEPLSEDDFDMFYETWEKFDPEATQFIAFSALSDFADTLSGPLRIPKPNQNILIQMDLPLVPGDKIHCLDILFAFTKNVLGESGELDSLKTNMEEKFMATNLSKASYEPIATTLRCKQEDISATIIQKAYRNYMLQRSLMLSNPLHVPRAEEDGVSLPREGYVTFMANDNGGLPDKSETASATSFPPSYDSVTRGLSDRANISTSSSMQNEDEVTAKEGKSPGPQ
smiles,measurement,setting,value
CC(C)(C)c1ccc(/C=C/C(=O)Nc2ccc3c(c2)OCCO3)cc1 [AMG9810],effect of antagonist pretreatment on amitriptyline-induced calcium ion mobilization,"TRPV1; 5-min pretreatment, 10 μM TRPV1 antagonist",had no effect
CC(C)c1ccc(NC(=O)Cn2cnc3c2c(=O)n(C)c(=O)n3C)cc1 [HC30301],effect of antagonist pretreatment on amitriptyline-induced calcium ion mobilization,"TRPA1; 5-min pretreatment, excess of TRPA1 antagonist",led to inhibition of amitriptyline-induced calcium ion mobilization
"CN(C)CCC=C1c2ccccc2CCc2ccccc21 [amitriptyline, Amitriptyline]",potentiation of DRG neuron activation induced by TRPA1 agonist,"TRPA1; 0.01 mM, 5-min incubation, 50 μM AITC",did not potentiate
same,IC50,Nav1.9,15.6 ± 0.5 µM
same,efficacy in the treatment of neuropathic pain,neuropathic pain,not efficacious
same,"firing in a C-type mechanonociceptor fiber, representative recording","C fibers; 11.4 mN stimulation, 100 μM, 10 min superfusion",Full inhibition of firing
same,IC50,C fibers; [5],~15 µM
same,inhibition at 100 µM,C fibers; [6],95.6%
same,"discharge of a low-threshold Aβ mechanoreceptor, representative recording","Aβ fibers; 1 mN stimulus, 100 μM, 5 and 10 min superfusion",inhibition was not complete
same,"reversal of inhibition after washout, Aβ mechanoreceptor",Aβ fibers; 30 min washout after 100 μM,partially reversed
same,IC50,Aβ fibers; [5],~26 µM
same,inhibition at 100 µM,Aβ fibers; [6],82.5%
same,IC50,Nav1.8,4.25 ± 0.4 µM
same,amitriptyline bioavailability,"[1]; 10 mg of 10% cream per cell, 16 hours",22.5 µg
same,amitriptyline present in the epidermis,"[1]; compared with dermis, 10% cream, 16 hours",26%
same,amitriptyline present in the dermis,"[1]; compared with epidermis, 10% cream, 16 hours",Approximately 74%
same,passage into the bloodstream,[1]; relative to the amount of amitriptyline present in the composition,less than 0.1%
same,time of washout to reversal of inhibition,"C, Aδ and Aβ fibers",30 to 35 min
same,time to increase in intracellular calcium ions,mouse DRG neurons; 0.1 mM,≤ 10 s
same,time to plateau of intracellular calcium ion amplitude curve,mouse DRG neurons; 0.1 mM,around 20 seconds
same,IC50,"mouse DRG neurons; Mus musculus, DRG neuron, 0.01 mM-1 mM, read-out: IC50, percentage of DRG neurons displaying intracellular calcium mobilization",50 µM
same,IC50,[2],62 ± 0.5 µM
same,plasma half-life,[3],9 to 36 h
same,IC50,"Aδ fibers; skin superfusion 10 min, 10-100 μM, read-out: IC50, inhibition of mechanically induced firing",~16 µM
same,inhibition at 100 µM,"Aδ fibers; 100 μM, 10 min application to the skin preparation, read-out: Mean inhibition of evoked firing",87.5%
same,time to reversal of inhibition,[4],≤ 20 ± 2 min
same,IC50,hNav1.7,4.25 ± 0.4 µM
same,potentiation of DRG neuron activation induced by TRPV1 agonist,"TRPV1; 0.01 mM, 5-min incubation, 62 nM capsaicin",did not potentiate
